According to patent US20180104224A1, “PHARMACEUTICAL COMPOSITIONS COMPRISING ANTIBACTERIAL AGENTS” (priority 2014, published 2018):

Experiments:
[1] = tested on: Pseudomonas aeruginosa 1405; assay: Time kill study; type: cell-based; conditions: P. aeruginosa 1405; for effect on bacterial counts through out the duration of the study (in words): when used alone; for Bacterial count (Log10 CFU/ml) 0 hour / Bacterial count (Log10 CFU/ml) 2 hour / Bacterial count (Log10 CFU/ml) 4 hour / Bacterial count (Log10 CFU/ml) 6 hour: single agent 4 mcg/ml
Protocol: (§1) The synergistic killing effect of the combinations according to invention was studied by performing time kill studies. In a typical time kill study, the freshly grown cultures were diluted to the required cell density (initial starting inoculum) in Cation adjusted Muller Hinton broth medium (BD, USA). The antibacterial agents (either alone or in combination) at the required concentrations were added into the culture-containing medium. The samples were incubated under shaking condition (120 rpm) at 37° C. Enumeration of viable bacterial count was done every 2 hour by diluting in normal saline and plating on to the Tryptic Soya Agar plates (BD, USA). The plates were incubated for 24 hours to arrive at the viable bacterial count. The results are expressed in terms of Log10 CFU per ml. In general, the decrease of 1 Log10 CFU/ml, corresponds to 90% killing of bacteria.

[2] = tested on: Pseudomonas aeruginosa R70; assay: Time kill study; type: cell-based; conditions: P. aeruginosa R70; for effect on bacterial counts through out the duration of the study (in words): when used alone; for Bacterial count (Log10 CFU/ml) 0 hour / Bacterial count (Log10 CFU/ml) 2 hour / Bacterial count (Log10 CFU/ml) 4 hour / Bacterial count (Log10 CFU/ml) 6 hour / Bacterial count (Log10 CFU/ml) 4 hours: single agent 4 mcg/ml
Protocol: as §1

[3] = tested on: highly resistant strains of Pseudomonas aeruginosa; assay: MIC determination, all strains; type: cell-based; conditions: highly resistant strains of P. aeruginosa
Protocol: (§2) The antibacterial activity of combinations according to the invention against resistant bacterial strains was investigated. Minimum Inhibitory Concentration (MIC) determination for the combinations according to invention was carried out in Muller Hinton Agar (MHA) (BD, USA) according to Clinical and Laboratory Standards Institute (CLSI) recommendations, (Clinical and Laboratory Standards Institute (CLSI), Performance Standards for Antimicrobial Susceptibility Testing, 20th Informational Supplement, M 100-S20, Volume 30, No. 1, 2010). In short, the test strains were adjusted to deliver about 10^4 CFU per spot with a multipoint inoculator (Applied Quality Services, UK). The plates were pored with MHA containing doubling concentration range of the test combinations according to invention. The plates were inoculated and were incubated at 35° C. for 18 hours.
The results on antibacterial activity of a carbapenem antibacterial agent selected from imipenem, meropenem, ertapenem and doripenem alone and in combination with Compound A or Compound B, against highly resistant strains of Pseudomonas aeruginosa are given in Table 1. […] For example, P. aeruginosa 2779 harbors resistance due to increased AmpC expression (300 times) and increased efflux; P. aeruginosa 1405 harbors resistance due to increased AmpC expression (600 times), reduced OprD expression and increased efflux; P. aeruginosa R 70 harbors resistance due to reduced OprD expression and increased efflux; and P. aeruginosa J 154 harbors resistance due to reduced OprD.

P. aeruginosa 1405 = assay: MIC determination in Muller Hinton Agar (CLSI); type: cell-based, Pseudomonas aeruginosa; conditions: for MIC (mcg/ml) of carbapenem in presence of [A] at 4 mcg/ml: in presence of Compound A at 4 mcg/ml; for MIC (mcg/ml) of carbapenem in presence of [B] at 4 mcg/ml: in presence of Compound B at 4 mcg/ml;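 as to all read-outs here: MIC read as lowest concentration giving complete growth inhibition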
Protocol: as §2

P. aeruginosa J 154 = assay: MIC determination in Muller Hinton Agar (CLSI);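 as to MIC (mcg/ml) of carbapenem in presence of [A] at 4 mcg/ml: MIC read as lowest concentration giving complete growth inhibition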;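 as to MIC (mcg/ml) of carbapenem in presence of [B] at 4 mcg/ml: MIC read as lowest concentration giving complete growth inhibition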; type: cell-based, Pseudomonas aeruginosa; conditions: for MIC: Pseudomonas aeruginosa, J154, agent alone, P. aeruginosa J 154 [Reduced OprD]; for MIC (mcg/ml) of carbapenem in presence of [A] at 4 mcg/ml: in presence of Compound A at 4 mcg/ml; for MIC (mcg/ml) of carbapenem in presence of [A] at 4 mcg/ml / MIC (mcg/ml) of carbapenem in presence of [B] at 4 mcg/ml: P. aeruginosa J 154; for MIC (mcg/ml) of carbapenem in presence of [B] at 4 mcg/ml: in presence of Compound B at 4 mcg/ml
Protocol: as §2

P. aeruginosa R 70 = assay: MIC determination in Muller Hinton Agar (CLSI); type: cell-based, Pseudomonas aeruginosa; conditions: for MIC: Pseudomonas aeruginosa, R70, 18 h, agent alone, P. aeruginosa R 70 [Reduced OprD + increased efflux]; for MIC (mcg/ml) of carbapenem in presence of [A] at 4 mcg/ml: in presence of Compound A at 4 mcg/ml; for MIC (mcg/ml) of carbapenem in presence of [A] at 4 mcg/ml / MIC (mcg/ml) of carbapenem in presence of [B] at 4 mcg/ml: P. aeruginosa R 70; for MIC (mcg/ml) of carbapenem in presence of [B] at 4 mcg/ml: in presence of Compound B at 4 mcg/ml
Protocol: as §2

P. aeruginosa 2779 = assay: MIC determination in Muller Hinton Agar (CLSI); type: cell-based, Pseudomonas aeruginosa; conditions: for MIC (mcg/ml) of carbapenem in presence of [A] at 4 mcg/ml: in presence of Compound A at 4 mcg/ml; for MIC (mcg/ml) of carbapenem in presence of [B] at 4 mcg/ml: in presence of Compound B at 4 mcg/ml;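 as to all read-outs here: MIC read as lowest concentration giving complete growth inhibition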
Protocol: as §2

[4] = in presence of Compound A or Compound B

Compound | effect on bacterial counts through out the duration of the study (in words) [1] | Bacterial count (Log10 CFU/ml) 0 hour ([1]; Table 2) | Bacterial count (Log10 CFU/ml) 2 hour ([1]; Table 2) | Bacterial count (Log10 CFU/ml) 4 hour ([1]; Table 2) | Bacterial count (Log10 CFU/ml) 6 hour ([1]; Table 2) | Bacterial count (Log10 CFU/ml) 0 hour ([1]; Table 3) | Bacterial count (Log10 CFU/ml) 2 hour ([1]; Table 3) | Bacterial count (Log10 CFU/ml) 4 hour ([1]; Table 3) | Bacterial count (Log10 CFU/ml) 6 hour ([1]; Table 3) | effect on bacterial counts through out the duration of the study (in words) [2] | Bacterial count (Log10 CFU/ml) 0 hour ([2]; Table 4) | Bacterial count (Log10 CFU/ml) 2 hour ([2]; Table 4) | Bacterial count (Log10 CFU/ml) 4 hour ([2]; Table 4) | Bacterial count (Log10 CFU/ml) 6 hour ([2]; Table 4) | Bacterial count (Log10 CFU/ml) 0 hour ([2]; Table 5) | Bacterial count (Log10 CFU/ml) 2 hour ([2]; Table 5) | Bacterial count (Log10 CFU/ml) 4 hours ([2]; Table 5) | Bacterial count (Log10 CFU/ml) 6 hour ([2]; Table 5) | MIC values (in words) [3, 4] | MIC values (in words) ([3]; when used alone) | other results
C[C@@H](O)[C@H]1C(=O)N2C(C(=O)O)=C(S[C@@H]3CN[C@H](CNS(N)(=O)=O)C3)[C@H](C)[C@H]12 [Doripenem, doripenem] | failed to reduce the bacterial counts | 6.84 Log10 CFU/ml | 6.17 Log10 CFU/ml | 5.90 Log10 CFU/ml | 6.60 Log10 CFU/ml | 6.81 Log10 CFU/ml | 6.17 Log10 CFU/ml | 5.90 Log10 CFU/ml | 6.60 Log10 CFU/ml | failed to reduce the bacterial counts | 6.62 Log10 CFU/ml | 5.74 Log10 CFU/ml | 5.65 Log10 CFU/ml | 5.65 Log10 CFU/ml | 6.44 Log10 CFU/ml | 5.74 Log10 CFU/ml | 5.65 Log10 CFU/ml | 5.65 Log10 CFU/ml | decreased significantly | higher MIC values | MIC (mcg/ml) of carbapenem in presence of [A] at 4 mcg/ml (P. aeruginosa 1405): 4 µg/mL; MIC (mcg/ml) of carbapenem in presence of [B] at 4 mcg/ml (P. aeruginosa 1405): 4 µg/mL; MIC (P. aeruginosa J 154): 8 µg/mL; MIC (mcg/ml) of carbapenem in presence of [A] at 4 mcg/ml (P. aeruginosa J 154): 8 µg/mL; MIC (mcg/ml) of carbapenem in presence of [B] at 4 mcg/ml (P. aeruginosa J 154): 4 µg/mL; MIC (P. aeruginosa R 70): 16 µg/mL; MIC (mcg/ml) of carbapenem in presence of [A] at 4 mcg/ml (P. aeruginosa R 70): 8 µg/mL; MIC (mcg/ml) of carbapenem in presence of [B] at 4 mcg/ml (P. aeruginosa R 70): <0.12 µg/mL; MIC (mcg/ml) of carbapenem in presence of [A] at 4 mcg/ml (P. aeruginosa 2779): 0.12 µg/mL; MIC (mcg/ml) of carbapenem in presence of [B] at 4 mcg/ml (P. aeruginosa 2779): 0.06 µg/mL
C[C@@H](O)[C@H]1C(=O)N2C(C(=O)O)=C(S[C@@H]3CN[C@H](C(=O)N(C)C)C3)[C@H](C)[C@H]12 [Meropenem, meropenem] | failed to reduce the bacterial counts | 6.84 Log10 CFU/ml | 5.95 Log10 CFU/ml | 6.89 Log10 CFU/ml | 7.02 Log10 CFU/ml | 6.81 Log10 CFU/ml | 6.8 Log10 CFU/ml | 7.0 Log10 CFU/ml | 7.3 Log10 CFU/ml | failed to reduce the bacterial counts | 6.62 Log10 CFU/ml | 7.07 Log10 CFU/ml | 6.84 Log10 CFU/ml | 8.36 Log10 CFU/ml | 6.44 Log10 CFU/ml | 6.14 Log10 CFU/ml | 7.07 Log10 CFU/ml | 7.3 Log10 CFU/ml | decreased significantly | higher MIC values | MIC (mcg/ml) of carbapenem in presence of [A] at 4 mcg/ml (P. aeruginosa 1405): 4 µg/mL; MIC (mcg/ml) of carbapenem in presence of [B] at 4 mcg/ml (P. aeruginosa 1405): 0.12 µg/mL; MIC (P. aeruginosa J 154): 16 µg/mL; MIC (mcg/ml) of carbapenem in presence of [A] at 4 mcg/ml (P. aeruginosa J 154): 8 µg/mL; MIC (mcg/ml) of carbapenem in presence of [B] at 4 mcg/ml (P. aeruginosa J 154): <0.25 µg/mL; MIC (P. aeruginosa R 70): > 32 µg/mL; MIC (mcg/ml) of carbapenem in presence of [A] at 4 mcg/ml (P. aeruginosa R 70): 16 µg/mL; MIC (mcg/ml) of carbapenem in presence of [B] at 4 mcg/ml (P. aeruginosa R 70): ≤0.12 µg/mL; MIC (mcg/ml) of carbapenem in presence of [A] at 4 mcg/ml (P. aeruginosa 2779): 0.12 µg/mL; MIC (mcg/ml) of carbapenem in presence of [B] at 4 mcg/ml (P. aeruginosa 2779): 0.12 µg/mL
